{"source": "patent US8946212B2", "about": "“Annelated N-heterocyclic sulfonamides with oxadiazolone headgroup, processes for their preparation and their use as pharmaceuticals” (Sanofi-Aventis, priority 2008, dated 2015)", "key": {"human PPARdelta": {"target": "T1, human PPARdelta (Homo sapiens, UniProt Q03181)", "T1 construct": "human PPARdelta receptor (amino acids S139-Y441); expressed in transfected cells; host or cells: HEK (human embryo kidney) cells, stably transfected; plasmid pcDNA3", "T1 sequence (Q03181 139-441)": "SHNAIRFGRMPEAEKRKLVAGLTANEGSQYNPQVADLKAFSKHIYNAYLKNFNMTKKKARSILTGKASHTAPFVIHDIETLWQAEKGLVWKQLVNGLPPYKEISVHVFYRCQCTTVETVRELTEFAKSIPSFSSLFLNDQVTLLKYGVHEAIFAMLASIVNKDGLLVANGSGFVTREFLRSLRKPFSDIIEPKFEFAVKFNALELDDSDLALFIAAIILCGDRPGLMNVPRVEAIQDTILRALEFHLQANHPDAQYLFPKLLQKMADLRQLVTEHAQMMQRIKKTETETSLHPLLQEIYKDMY", "experiment": "Cellular PPARdelta assay (HEK reporter cell line, luciferase)", "format": "cell-based", "conditions": "PPARdelta reporter cell line (HEK, GR-GAL4-humanPPARdelta-LBD)", "protocol": "The potency of substances which bind to human PPARdelta and activate it in an agonistic manner is analyzed using a stably transfected HEK cell line (HEK=human embryo kidney) which is referred to here as PPARdelta reporter cell line. In analogy to the assay described for PPARalpha, the PPARdelta reporter cell line also contains two genetic elements, a luciferase reporter element (pdeltaM-GAL4-Luc-Zeo) and a PPARdelta fusion protein (GR-GAL4-humanPPARdelta-LBD) which mediates expression of the luciferase reporter element depending on a PPARdelta ligand. The stably and constitutively expressed fusion protein GR-GAL4-humanPPARdelta-LBD binds in the cell nucleus of the PPARdelta reporter cell line via the GAL4 protein portion to the GAL4 DNA binding motifs 5″-upstream of the luciferase reporter element which is stably integrated in the genome of the cell line. There is only little expression of the luciferase reporter gene in the absence of a PPARdelta ligand if fatty acid-depleted fetal calf serum (cs-FCS) is used in the assay. PPARdelta ligands bind and activate the PPARdelta fusion protein and thereby stimulate expression of the luciferase reporter gene. The luciferase which is formed can be detected by means of chemiluminescence via an appropriate substrate.\nThe production of the stable PPARdelta reporter cell line is based on a stable HEK-cell clone which was stably transfected with a luciferase reporter element. This step was already described above in the section “construction of the PPARalpha reporter cell line”. In a second step, the PPARdelta fusion protein (GR-GAL4-humanPPARdelta-LBD was stably introduced into this cell clone. For this purpose, the cDNA coding for the N-terminal 76 amino acids of the glucocorticoid receptor (Accession # P4150) was linked to the cDNA section coding for amino acids 1-147 of the yeast transcription factor GAL4 (Accession #P04386). The cDNA of the ligand-binding domain of the human PPARdelta receptor (amino acids S139-Y441; Accession # L07592) was cloned in at the 3′-end of this GR-GAL4 construct. The fusion construct prepared in this way (GR-GAL4-humanPPARdelta-LBD) was recloned into the plasmid pcDNA3 (Invitrogen) in order to enable constitutive expression by the cytomegalovirus promoter. This plasmid was linearized with a restriction endonuclease and stably transfected into the previously described cell clone containing the luciferase reporter element. The resulting PPARdelta reporter cell line which contains a luciferase reporter element and constitutively expresses the PPARdelta fusion protein (GR-GAL4-human PPARdelta-LBD) was isolated by selection with zeocin (0.5 mg/ml) and G418 (0.5 mg/ml).\nThe activity of PPARdelta agonists is determined in a 3-day assay in exact analogy to the procedure already described for the PPARalpha reporter cell line except that the PPARdelta reporter cell line and a specific PPARdelta agonist was used as a standard to control test efficacy."}, "human PPARalpha": {"target": "T2, human PPARalpha (Homo sapiens, UniProt Q07869)", "T2 construct": "human PPARalpha receptor (amino acids S167-Y468); expressed in transfected cells; host or cells: HEK (human embryo kidney) cells, stably transfected; plasmid pcDNA3", "T2 sequence (Q07869 167-468)": "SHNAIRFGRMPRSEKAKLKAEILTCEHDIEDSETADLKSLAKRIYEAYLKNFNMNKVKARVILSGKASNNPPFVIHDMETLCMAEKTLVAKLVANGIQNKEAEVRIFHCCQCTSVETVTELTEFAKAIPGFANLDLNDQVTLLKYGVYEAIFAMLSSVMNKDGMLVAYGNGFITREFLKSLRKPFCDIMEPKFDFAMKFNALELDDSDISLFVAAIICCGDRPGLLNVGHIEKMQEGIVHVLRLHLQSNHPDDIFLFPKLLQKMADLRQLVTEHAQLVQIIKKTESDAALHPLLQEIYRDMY", "experiment": "Cellular PPARalpha assay (HEK reporter cell line, luciferase)", "format": "cell-based", "conditions": "PPARalpha reporter cell line (HEK, GR-GAL4-humanPPARalpha-LBD)", "protocol": "The potency of substances which bind to human PPARalpha and activate it in an agonistic manner is analyzed using a stably transfected HEK cell line (HEK=human embryo kidney) which is referred to here as PPARalpha reporter cell line. It contains two genetic elements, a luciferase reporter element (pdeltaM-GAL4-Luc-Zeo) and a PPARalpha fusion protein (GR-GAL4-humanPPARalpha-LBD) which mediates expression of the luciferase reporter element depending on a PPARalpha ligand. The stably and constitutively expressed fusion protein GR-GAL4-humanPPARalpha-LBD binds in the cell nucleus of the PPARalpha reporter cell line via the GAL4 protein portion to the GAL4 DNA binding motifs 5′-upstream of the luciferase reporter element which is stably integrated in the genome of the cell line. There is only weak expression of the luciferase reporter gene in the absence of a PPARalpha ligand if fatty acid-depleted fetal calf serum (cs-FCS) is used in the assay. PPARalpha ligands bind and activate the PPARalpha fusion protein and thereby stimulate the expression of the luciferase reporter gene. The luciferase which is formed can be detected by means of chemiluminescence via an appropriate substrate.\nThe PPARalpha reporter cell line was prepared in two stages. […]\nThe activity of PPARalpha agonists is determined in a 3-day assay which is described below: […]"}, "[1]": {"conditions": "obese, insulin resistant rhesus monkeys, cited from earlier work"}, "[2]": {"conditions": "two weeks clinical trials in healthy volunteers; cited from earlier work"}, "[3]": {"conditions": "cynomolgus monkeys; cited from earlier work"}, "[4]": {"conditions": "rhesus monkeys; cited from earlier work"}, "[5]": {"conditions": "diabetic animal model; cited from earlier work"}}, "note": "Read-outs that look alike come from different tables or passages of the source."}
{"molecule": "O=c1[nH]c(-c2ccc(S(=O)(=O)N3CCCc4nc(-c5ccc(C(F)(F)F)cc5)ccc43)cc2Cl)no1", "note": "[Example 13, 3-{2-Chloro-4-[6-(4-trifluoromethyl-phenyl)-3,4-dihydro-2H-[1,5]naphthyridine-1-sulfonyl]-phenyl}-4H-[1,2,4]oxadiazol-5-one]", "values": [{"measurement": "EC50", "setting": "human PPARdelta", "value": 0.4, "unit": "nM"}, {"measurement": "EC50", "setting": "human PPARalpha", "value": 505, "unit": "nM"}]}
{"molecule": "O=c1[nH]c(-c2ccc(S(=O)(=O)N3CCNCc4cc(-c5ccc(C(F)(F)F)cc5)ccc43)cc2Cl)no1", "note": "[Example 12, 3-{2-Chloro-4-[7-(4-trifluoromethyl-phenyl)-2,3,4,5-tetrahydro-benzo[e][1,4]diazepine-1-sulfonyl]-phenyl}-4H-[1,2,4]oxadiazol-5-one]", "values": [{"measurement": "EC50", "setting": "human PPARdelta", "value": 530, "unit": "nM"}]}
{"molecule": "CC1(C)Cc2cc(-c3ccc(C(F)(F)F)cc3)ccc2N(c2ccc(-c3noc(=O)[nH]3)c(Cl)c2)C1", "note": "[Example 5, 3-{2-Chloro-4-[3,3-dimethyl-6-(4-trifluoromethyl-phenyl)-3,4-dihydro-2H-quinolin-1-yl]-phenyl}-4H-[1,2,4]oxadiazol-5-one]", "values": [{"measurement": "EC50", "setting": "human PPARdelta", "value": 1.9, "unit": "nM"}]}
{"molecule": "3-{2-Chloro-4-[7-(4-trifluoromethyl-phenyl)-2,3-dihydro-pyrido[3,2-b][1,4]oxazin-4-yl]-phenyl}-4H-[1,2,4]oxadiazol-5-one [Example 8]", "values": [{"measurement": "EC50", "setting": "human PPARdelta", "value": 55, "unit": "nM"}]}
{"molecule": "3-{2-Chloro-4-[4,4-dimethyl-6-(4-trifluoromethyl-phenyl)-3,4-dihydro-2H-quinolin-1-yl]-phenyl}-4H-[1,2,4]oxadiazol-5-one [Example 3]", "values": [{"measurement": "EC50", "setting": "human PPARdelta", "value": 3.3, "unit": "nM"}]}
{"molecule": "Cc1cc(SCc2sc(-c3ccc(C(F)(F)F)cc3)nc2C)ccc1OCC(=O)O", "note": "[GW501516]", "values": [{"measurement": "insulin levels", "setting": "[1]; plasma", "value": "decreases"}, {"measurement": "triglycerides", "setting": "[1]; plasma", "value": "decreases"}, {"measurement": "HDL-cholesterol", "setting": "[1]", "value": "raises"}, {"measurement": "plasma LDL-cholesterol", "setting": "[1]", "value": "decreases"}]}
{"molecule": "CCCc1c(OCCCSc2nnc(SCC(=O)O)s2)ccc(C(C)=O)c1O", "note": "[YM-16638]", "values": [{"measurement": "plasma lipids", "setting": "[2]", "value": "acts in a similar manner"}, {"measurement": "plasma lipids", "setting": "[3]", "value": "significantly lowers"}, {"measurement": "plasma lipids", "setting": "[4]", "value": "significantly lowers"}]}
{"molecule": "CCCc1c(OCCCOc2ccc(OCC(=O)O)cc2)ccc(C(C)=O)c1O", "note": "[Example L-165041]", "values": [{"measurement": "plasma cholesterol", "setting": "[5]", "value": "raises"}]}
{"molecule": "3-{4-[6-(4-Trifluoromethyl-phenyl)-3,4-dihydro-2H-quinolin-1-yl]-phenyl}-4H-[1,2,4]oxadiazol-5-one [Example 1]", "values": [{"measurement": "EC50", "setting": "human PPARdelta", "value": 2.3, "unit": "nM"}]}
